Test results taken from publication PMC2933066 (Bioorganic & medicinal chemistry letters, 2010).
Values after ≈ are worked out from the molar mass of the structure shown.

How the values were obtained:
[1] = test system: tubulin; format: biochemical; conditions: read-out: Inhibition of tubulin assembly IC50 (μM) ± SD
[2] = test system: A549 (human lung adenocarcinoma); conditions: cited from earlier work
[3] = test system: KB (human epidermoid carcinoma of the nasopharynx); conditions: cited from earlier work

CN[C@H]1CCc2cc(OC)c(OP(=O)(O)O)c(OC)c2-c2ccc(SC)c(=O)cc21 [Compound 16]
IC50 [1]: > 40 µM

CN[C@H]1CCc2cc(OC)c(O)c(OC)c2-c2ccc(SC)c(=O)cc21 [Compound 15]
IC50 [1]: > 40 µM

CCCN([C@H]1CCc2cc(OC)c(OC)c(OC)c2-c2ccc(SC)c(=O)cc21)S(=O)(=O)c1ccccc1[N+](=O)[O-] [Compound 13]
IC50 [1]: > 40 µM

COc1cc2c(c(OC)c1O)-c1ccc(SC)c(=O)cc1C(NC(C)=O)CC2 (centres unmarked) [Compound 3, 2-Demethylthiocolchicine]
ED50 against A549 [2]: 0.01 µg/mL (≈ 0.0249 µM) | ED50 against KB [3]: 0.01 µg/mL (≈ 0.0249 µM)
